Measured values reported in ChEMBL document CHEMBL2074425, “Characterization of the 5'-flanking region of the human multidrug resistance protein 2 (MRP2) gene and its regulation in comparison withthe multidrug resistance protein 3 (MRP3) gene” (Eur J Biochem, 2000).

Legend:
[1] = target: Multidrug resistance associated protein (Homo sapiens) (UniProt Q96QA9); assay: (§1) TP_TRANSPORTER: reporter gene activity in promoter constructs in HepG2 cells; format: functional, cell-based
[2] = target: ATP-binding cassette sub-family C member 2 (Homo sapiens, UniProt Q92887); assay: as §1; format: functional, cell-based
ATP-binding cassette sub-family C member 2, sequence (Q92887 whole entry): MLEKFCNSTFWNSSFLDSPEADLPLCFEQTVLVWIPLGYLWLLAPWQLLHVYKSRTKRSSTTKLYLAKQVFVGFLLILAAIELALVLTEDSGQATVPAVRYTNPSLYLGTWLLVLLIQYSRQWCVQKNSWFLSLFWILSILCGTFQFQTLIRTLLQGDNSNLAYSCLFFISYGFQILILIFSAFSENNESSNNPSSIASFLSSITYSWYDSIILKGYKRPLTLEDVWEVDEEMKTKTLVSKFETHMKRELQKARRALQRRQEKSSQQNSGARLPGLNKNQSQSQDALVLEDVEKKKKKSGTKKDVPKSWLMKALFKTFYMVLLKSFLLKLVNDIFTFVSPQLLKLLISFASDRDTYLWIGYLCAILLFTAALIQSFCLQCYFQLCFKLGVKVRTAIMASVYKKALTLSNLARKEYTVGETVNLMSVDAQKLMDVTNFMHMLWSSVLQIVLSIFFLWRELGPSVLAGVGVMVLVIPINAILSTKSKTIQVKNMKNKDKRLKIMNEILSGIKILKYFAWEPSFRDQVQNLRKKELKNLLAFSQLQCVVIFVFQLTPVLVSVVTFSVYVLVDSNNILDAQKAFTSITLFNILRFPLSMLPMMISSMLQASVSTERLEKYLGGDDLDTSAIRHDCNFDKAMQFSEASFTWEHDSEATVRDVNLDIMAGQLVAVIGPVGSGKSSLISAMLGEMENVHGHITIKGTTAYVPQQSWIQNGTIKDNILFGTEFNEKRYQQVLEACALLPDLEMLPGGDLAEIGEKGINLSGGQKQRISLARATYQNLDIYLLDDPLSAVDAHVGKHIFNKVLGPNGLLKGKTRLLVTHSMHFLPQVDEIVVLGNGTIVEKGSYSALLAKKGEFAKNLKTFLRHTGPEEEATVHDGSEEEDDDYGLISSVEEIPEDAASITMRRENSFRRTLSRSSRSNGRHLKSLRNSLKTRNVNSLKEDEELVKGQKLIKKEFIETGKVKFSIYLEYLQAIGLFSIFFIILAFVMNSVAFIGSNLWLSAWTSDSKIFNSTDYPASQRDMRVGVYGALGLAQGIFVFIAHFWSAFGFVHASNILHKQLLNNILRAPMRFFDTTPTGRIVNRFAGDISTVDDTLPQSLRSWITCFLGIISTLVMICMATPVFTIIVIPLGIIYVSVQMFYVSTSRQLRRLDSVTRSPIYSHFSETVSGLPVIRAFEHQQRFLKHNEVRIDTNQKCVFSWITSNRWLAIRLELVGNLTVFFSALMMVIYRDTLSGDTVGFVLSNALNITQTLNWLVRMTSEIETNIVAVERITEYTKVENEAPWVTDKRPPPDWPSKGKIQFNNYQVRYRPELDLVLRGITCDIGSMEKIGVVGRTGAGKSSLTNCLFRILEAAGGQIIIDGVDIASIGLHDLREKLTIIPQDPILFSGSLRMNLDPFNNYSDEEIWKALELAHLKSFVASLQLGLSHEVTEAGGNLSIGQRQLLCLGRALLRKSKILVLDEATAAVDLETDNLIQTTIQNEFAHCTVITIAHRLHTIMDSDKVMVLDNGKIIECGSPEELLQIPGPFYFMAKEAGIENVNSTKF

Multidrug resistance associated protein (Homo sapiens), sequence (Q96QA9 as listed by the source): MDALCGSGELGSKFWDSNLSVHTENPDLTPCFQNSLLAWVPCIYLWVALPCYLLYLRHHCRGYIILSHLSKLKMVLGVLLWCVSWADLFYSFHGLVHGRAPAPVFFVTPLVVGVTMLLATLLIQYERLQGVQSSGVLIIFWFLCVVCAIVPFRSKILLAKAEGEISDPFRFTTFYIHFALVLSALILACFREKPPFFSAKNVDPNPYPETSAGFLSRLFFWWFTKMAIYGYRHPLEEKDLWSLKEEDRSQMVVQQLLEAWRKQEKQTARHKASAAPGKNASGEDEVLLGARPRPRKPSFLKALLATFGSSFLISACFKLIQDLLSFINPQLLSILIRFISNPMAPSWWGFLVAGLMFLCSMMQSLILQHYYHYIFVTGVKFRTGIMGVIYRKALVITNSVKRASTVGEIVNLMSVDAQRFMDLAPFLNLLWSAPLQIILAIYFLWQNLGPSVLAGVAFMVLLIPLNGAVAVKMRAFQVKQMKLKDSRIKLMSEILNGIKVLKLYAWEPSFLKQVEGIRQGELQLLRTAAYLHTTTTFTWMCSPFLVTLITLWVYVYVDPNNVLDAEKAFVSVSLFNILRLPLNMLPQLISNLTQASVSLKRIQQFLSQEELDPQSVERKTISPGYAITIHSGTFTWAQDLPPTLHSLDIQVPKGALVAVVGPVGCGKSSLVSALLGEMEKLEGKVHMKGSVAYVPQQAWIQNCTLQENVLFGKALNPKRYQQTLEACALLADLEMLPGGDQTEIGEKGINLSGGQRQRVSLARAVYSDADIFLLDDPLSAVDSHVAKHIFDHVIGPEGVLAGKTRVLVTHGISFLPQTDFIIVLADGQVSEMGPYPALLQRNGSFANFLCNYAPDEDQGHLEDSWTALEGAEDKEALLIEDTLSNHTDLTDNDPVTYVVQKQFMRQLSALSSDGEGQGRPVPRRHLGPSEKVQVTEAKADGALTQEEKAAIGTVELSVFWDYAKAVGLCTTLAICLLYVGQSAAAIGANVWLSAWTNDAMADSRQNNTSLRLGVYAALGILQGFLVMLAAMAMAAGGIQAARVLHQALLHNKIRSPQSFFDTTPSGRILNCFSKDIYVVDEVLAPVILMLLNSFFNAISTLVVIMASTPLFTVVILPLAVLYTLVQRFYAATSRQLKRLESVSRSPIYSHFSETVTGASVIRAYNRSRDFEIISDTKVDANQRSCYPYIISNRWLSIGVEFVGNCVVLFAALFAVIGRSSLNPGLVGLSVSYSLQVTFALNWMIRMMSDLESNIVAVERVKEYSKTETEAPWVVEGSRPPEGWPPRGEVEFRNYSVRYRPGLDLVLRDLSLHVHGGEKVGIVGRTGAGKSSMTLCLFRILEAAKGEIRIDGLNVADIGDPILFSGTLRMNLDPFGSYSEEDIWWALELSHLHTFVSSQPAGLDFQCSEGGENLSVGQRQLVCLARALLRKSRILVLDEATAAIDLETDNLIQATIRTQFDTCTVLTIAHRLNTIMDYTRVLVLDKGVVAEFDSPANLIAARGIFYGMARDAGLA

Compound | Activity [1] | Activity [2]
COC(=O)Nc1nc2cc(C(=O)c3cccs3)ccc2[nH]1 | inducer [+] | 
COC(=O)Nc1nc2ccc(C(=O)c3cccs3)cc2[nH]1 [NOCODAZOLE] |  | inducer [+]
